Test system: yeast genes (expressed mRNA)
Assay: DNA chip measurement of expressed mRNA of yeast genes after culture with a toxic chemical substance
Format: cell-based, Saccharomyces cerevisiae S288C
Procedure: Yeast (Saccharomyces cerevisiae S288C (a SUC2mal mel gap2 CUP1)) were cultured at 25° C. on YPD medium (yeast extract 1%, polypeptone 2%, glucose 2%). One of toxic chemical substances was added to the cell at logarithmic growth phase, and the cell was further cultured for two hours. Cell was cultured without any chemical substance in the same condition, and was used as a control. Concentrations of the chemical substances were defined to inhibit the growth of the yeast but not lead to death.
After the completion of cultivation, the culture was centrifuged to collect the cells. To the cells, sodium acetate buffer (50 mM sodium acetate, 10 mM EDTA, 1% SDS) was added, and the mixture was shaken at 65° C. for five minutes, followed by returning to room temperature, and obtaining the supernatant, which procedure was repeated two times. To the supernatant, ½ amount of a solution of phenol/chloroform (1:1) was added, and the mixture was centrifuged to give a supernatant, an equal amount of chloroform was added, and the mixture was centrifuged to give a supernatant. To the supernatant, an equal amount of isopropanol containing 0.3 M sodium acetate was added, and the mixture was allowed to stand at room temperature for 30 minutes, after which the mixture was centrifuged to give sediment of the whole RNAs. Seventy % ethanol was added to the sediment, and the mixture was again centrifuged to give sediment, which was then dried and dissolved in water. mRNA was isolated from the whole RNAs as followings. In view of the fact that a poly A chain is attached to the 3′ terminus of mRNA, a polynucleotide having a poly T structure which was immobilized on the surface of latex beads was used to trap the mRNA, and then the mRNA was washed and eluted with spine column (Oligotex-dT30<Super>mRNA Purification Kit, Takara). Reverse transcription of the mRNA was conducted with a reverse transcriptase (Super Script II Reverse Transcriptase; catalogue No. 18064-014, GibcoBRL) using fluorescence-labeled nucleotides to give cDNAs that were introduced with Cy3-dUTP or Cy5-dUTP during the reverse transcription.
The labeled cDNAs were dissolved in TE buffer (10 mM Tris-HCl/1 mM EDTA, pH 8.0), and the solution was dropped on the DNA chip containing the whole genes of yeast (DNA Chip Research Inc. Japan) so that the cDNAs were hybridized on the DNA chip at 65° C. for over 12 hours. The fluoresces intensity of the DNA chip was read with a scanner, and the ratio relative to the fluorescence intensity resulting from the absence of chemical substance was estimated as the following, which is shown in Tables 1 to 9.
In the Tables, “Intensity” indicated in the rightmost column is a value of the level of expressed mRNA of each gene in control cells as divided by the average level of the expressions of the whole genes. A gene of which mRNA level is lower in control, and is higher in cases of addition of chemical substance, is especially useful in the detection of toxic substances.
Here, when a ratio of an amount of mRNA expressed in the presence of the chemical substance to an amount of mRNA expressed in the absence of the chemical substance is two or more, then it is considered significant.

For S=C([S-])NCCNC(=S)[S-].[Zn+2] [(11), Zinc N,N′-ethylenebis(dithiocarbamate)], the “The level of expressed mRNA in the presence of chemical substance/The level of expressed mRNA in the absence of chemical substance” value (yeast gene YKL086W, cultured two hours with substance) was 0.7, the “The level of expressed mRNA in the presence of chemical substance/The level of expressed mRNA in the absence of chemical substance” value (yeast gene YKL151C, cultured two hours with substance) was 2.3 and the “The level of expressed mRNA in the presence of chemical substance/The level of expressed mRNA in the absence of chemical substance” value (yeast gene YKL153W, cultured two hours with substance) was 2.1. For the same compound, the “The level of expressed mRNA in the presence of chemical substance/The level of expressed mRNA in the absence of chemical substance” value (yeast gene YKL195W, cultured two hours with substance) was 1.0, the “The level of expressed mRNA in the presence of chemical substance/The level of expressed mRNA in the absence of chemical substance” value (yeast gene YKR076W) was 18.6 and the “The level of expressed mRNA in the presence of chemical substance/The level of expressed mRNA in the absence of chemical substance” value (yeast gene YKR091W, cultured two hours with substance) was 1.1. The “The level of expressed mRNA in the presence of chemical substance/The level of expressed mRNA in the absence of chemical substance” value (yeast gene YLL060C (detoxification protein gene)) was 14.1, the “The level of expressed mRNA in the presence of chemical substance/The level of expressed mRNA in the absence of chemical substance” value (yeast gene YLL060C (stress protein genes)) was 14.1 and the “The level of expressed mRNA in the presence of chemical substance/The level of expressed mRNA in the absence of chemical substance” value (yeast gene YLR031W, cultured two hours with substance) was 0.7. For the same compound, the “The level of expressed mRNA in the presence of chemical substance/The level of expressed mRNA in the absence of chemical substance” value (yeast gene YLR054C, cultured two hours with substance) was 0.7, the “The level of expressed mRNA in the presence of chemical substance/The level of expressed mRNA in the absence of chemical substance” value (yeast gene YLR142W) was 3.8 and the “The level of expressed mRNA in the presence of chemical substance/The level of expressed mRNA in the absence of chemical substance” value (yeast gene YLR149C, cultured two hours with substance) was 2.8. The “The level of expressed mRNA in the presence of chemical substance/The level of expressed mRNA in the absence of chemical substance” value (yeast gene YLR152C, cultured two hours with substance) was 3.6, the “The level of expressed mRNA in the presence of chemical substance/The level of expressed mRNA in the absence of chemical substance” value (yeast gene YLR194C, cultured two hours with substance) was 1.4 and the “The level of expressed mRNA in the presence of chemical substance/The level of expressed mRNA in the absence of chemical substance” value (yeast gene YLR205C, cultured two hours with substance) was 0.4. For the same compound, the “The level of expressed mRNA in the presence of chemical substance/The level of expressed mRNA in the absence of chemical substance” value (yeast gene YLR297W, cultured two hours with substance) was 3.5, the “The level of expressed mRNA in the presence of chemical substance/The level of expressed mRNA in the absence of chemical substance” value (yeast gene YLR324W, cultured two hours with substance) was 0.9 and the “The level of expressed mRNA in the presence of chemical substance/The level of expressed mRNA in the absence of chemical substance” value (yeast gene YLR346C, cultured two hours with substance) was 0.5. For the same compound, the “The level of expressed mRNA in the presence of chemical substance/The level of expressed mRNA in the absence of chemical substance” value (yeast gene YLR350W, cultured two hours with substance) was 0.9, the “The level of expressed mRNA in the presence of chemical substance/The level of expressed mRNA in the absence of chemical substance” value (yeast gene YLR387C, cultured two hours with substance) was 0.9 and the “The level of expressed mRNA in the presence of chemical substance/The level of expressed mRNA in the absence of chemical substance” value (yeast gene YLR460C, cultured two hours with substance) was 14.3. The “The level of expressed mRNA in the presence of chemical substance/The level of expressed mRNA in the absence of chemical substance” value (yeast gene YML117W, cultured two hours with substance) was 0.8, the “The level of expressed mRNA in the presence of chemical substance/The level of expressed mRNA in the absence of chemical substance” value (yeast gene YML131W) was 14.4 and the “The level of expressed mRNA in the presence of chemical substance/The level of expressed mRNA in the absence of chemical substance” value (yeast gene YMR009W, cultured two hours with substance) was 2.1. For the same compound, the “The level of expressed mRNA in the presence of chemical substance/The level of expressed mRNA in the absence of chemical substance” value (yeast gene YMR067C, cultured two hours with substance) was 1.1, the “The level of expressed mRNA in the presence of chemical substance/The level of expressed mRNA in the absence of chemical substance” value (yeast gene YMR090W, cultured two hours with substance) was 8.8 and the “The level of expressed mRNA in the presence of chemical substance/The level of expressed mRNA in the absence of chemical substance” value (yeast gene YMR095C, cultured two hours with substance) was 2.1. The “The level of expressed mRNA in the presence of chemical substance/The level of expressed mRNA in the absence of chemical substance” value (yeast gene YMR097C, cultured two hours with substance) was 1.5, the “The level of expressed mRNA in the presence of chemical substance/The level of expressed mRNA in the absence of chemical substance” value (yeast gene YMR102C, cultured two hours with substance) was 1.5 and the “The level of expressed mRNA in the presence of chemical substance/The level of expressed mRNA in the absence of chemical substance” value (yeast gene YMR107W, cultured two hours with substance) was 3.0. The “The level of expressed mRNA in the presence of chemical substance/The level of expressed mRNA in the absence of chemical substance” value (yeast gene YMR140W, cultured two hours with substance) was 0.7, the “The level of expressed mRNA in the presence of chemical substance/The level of expressed mRNA in the absence of chemical substance” value (yeast gene YMR180C, cultured two hours with substance) was 0.7 and the “The level of expressed mRNA in the presence of chemical substance/The level of expressed mRNA in the absence of chemical substance” value (yeast gene YMR184W, cultured two hours with substance) was 1.5. The “The level of expressed mRNA in the presence of chemical substance/The level of expressed mRNA in the absence of chemical substance” value (yeast gene YMR191W, cultured two hours with substance) was 2.3, the “The level of expressed mRNA in the presence of chemical substance/The level of expressed mRNA in the absence of chemical substance” value (yeast gene YMR195W, cultured two hours with substance) was 1.1 and the “The level of expressed mRNA in the presence of chemical substance/The level of expressed mRNA in the absence of chemical substance” value (yeast gene YMR295C, cultured two hours with substance) was 1.2. The “The level of expressed mRNA in the presence of chemical substance/The level of expressed mRNA in the absence of chemical substance” value (yeast gene YMR316W, cultured two hours with substance) was 1.5, the “The level of expressed mRNA in the presence of chemical substance/The level of expressed mRNA in the absence of chemical substance” value (yeast gene YNL044W, cultured two hours with substance) was 1.1 and the “The level of expressed mRNA in the presence of chemical substance/The level of expressed mRNA in the absence of chemical substance” value (yeast gene YNL074C, cultured two hours with substance) was 1.3. The “The level of expressed mRNA in the presence of chemical substance/The level of expressed mRNA in the absence of chemical substance” value (yeast gene YNL092W, cultured two hours with substance) was 0.7.
